Measured values reported in PubChem BioAssay AID1918946 (Molecular Pharmacology Branch, DTP, NCI, 2023).

Tested on: 885512-296-R-J2-PDC complex spheroid viability
Test: Anticancer human tumor 885512-296-R-J2-PDC patient-derived breast carcinoma cell line growth inhibition
Settings: for IC50: curve of first compound; for viability, T/C: stronger effect = lower value
Procedure, shortened: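 Drug combinations with the LSD1 inhibitor iadademstat tested on tumor cells co-cultured as spheroids with endothelial cells and mesenchymal stem cells. Concentrations descended in half-log increments from clinical Cmax or 10 microM.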

[1] = second compound 0.1 µM, first compound 0.00316 µM
[2] = second compound 0.1 µM, first compound 0.01 µM
[3] = second compound 0.1 µM, first compound 0.0316 µM
[4] = second compound 0.1 µM, first compound 0.1 µM
[5] = second compound 0.316 µM, first compound 0.00316 µM
[6] = second compound 0.316 µM, first compound 0.01 µM
[7] = second compound 0.316 µM, first compound 0.0316 µM
[8] = second compound 0.316 µM, first compound 0.1 µM
[9] = second compound 1 µM, first compound 0.00316 µM
[10] = second compound 1 µM, first compound 0.01 µM
[11] = second compound 1 µM, first compound 0.0316 µM
[12] = second compound 1 µM, first compound 0.1 µM
[13] = second compound 3.16 µM, first compound 0.00316 µM
[14] = second compound 3.16 µM, first compound 0.01 µM
[15] = second compound 3.16 µM, first compound 0.0316 µM
[16] = second compound 3.16 µM, first compound 0.1 µM
[17] = second compound 10 µM, first compound 0.00316 µM
[18] = second compound 10 µM, first compound 0.01 µM
[19] = second compound 10 µM, first compound 0.0316 µM
[20] = second compound 10 µM, first compound 0.1 µM
[21] = second compound 0.1 µM, first compound 0.316 µM
[22] = second compound 0.1 µM, first compound 1 µM
[23] = second compound 0.316 µM, first compound 0.316 µM
[24] = second compound 0.316 µM, first compound 1 µM
[25] = second compound 1 µM, first compound 0.316 µM
[26] = second compound 1 µM, first compound 1 µM
[27] = second compound 3.16 µM, first compound 0.316 µM
[28] = second compound 3.16 µM, first compound 1 µM
[29] = second compound 10 µM, first compound 0.316 µM
[30] = second compound 10 µM, first compound 1 µM
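Note: spheroids exposed to agents for 7 days before viability read.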

`CC(C)CC(NC(=O)C(Cc1ccccc1)NC(=O)c1cnccn1)B(O)O` (stereo not given) + NC1CCC(NC2CC2c2ccccc2)CC1 gave an IC50 (second compound 0.1 µM) of 1.3 nM, an IC50 (second compound 0.316 µM) of 1.34 nM and an IC50 (second compound 1 µM) of 1.38 nM. For the same compound, the IC50 (second compound 3.16 µM) was 1.33 nM, the IC50 (second compound 10 µM) was 1.09 nM and the viability, T/C (second compound 0.1 µM, first compound 0.000316 µM) was 149%. For the same compound, the viability, T/C (second compound 0.1 µM, first compound 0.001 µM) was 63.9%, the viability, T/C [1] was 2.42% and the viability, T/C [2] was 0.24%. It also gave a viability, T/C [3] of 7.32%, a viability, T/C [4] of 3.74% and a viability, T/C (second compound 0.316 µM, first compound 0.000316 µM) of 134%. For the same compound, the viability, T/C (second compound 0.316 µM, first compound 0.001 µM) was 65.7%, the viability, T/C [5] was 2.51% and the viability, T/C [6] was 0.43%. The viability, T/C [7] was 7.09%, the viability, T/C [8] was 3.61% and the viability, T/C (second compound 1 µM, first compound 0.000316 µM) was 152%. For the same compound, the viability, T/C (second compound 1 µM, first compound 0.001 µM) was 68.4%, the viability, T/C [9] was 2.46% and the viability, T/C [10] was 0.35%. It also gave a viability, T/C [11] of 3.66%, a viability, T/C [12] of 3.45% and a viability, T/C (second compound 3.16 µM, first compound 0.000316 µM) of 137%. For the same compound, the viability, T/C (second compound 3.16 µM, first compound 0.001 µM) was 66.2%, the viability, T/C [13] was 1.59% and the viability, T/C [14] was 0.23%. For the same compound, the viability, T/C [15] was 0.08%, the viability, T/C [16] was 0.08% and the viability, T/C (second compound 10 µM, first compound 0.000316 µM) was 138%. For the same compound, the viability, T/C (second compound 10 µM, first compound 0.001 µM) was 54%, the viability, T/C [17] was 1.4% and the viability, T/C [18] was 0.2%. It also gave a viability, T/C [19] of 0.09% and a viability, T/C [20] of 0.13%.
`O=C(C=Cn1cnc(-c2cc(C(F)(F)F)cc(C(F)(F)F)c2)n1)NNc1cnccn1` + NC1CC1c1ccc(-c2cccc(O)c2)cc1 was tested, and the IC50 (second compound 0.1 µM) was < 3.16 nM, the IC50 (second compound 0.316 µM) was < 3.16 nM and the IC50 (second compound 1 µM) was < 3.16 nM. The IC50 (second compound 3.16 µM) was < 3.16 nM, the IC50 (second compound 10 µM) was < 3.16 nM and the viability, T/C [1] was 22.8%. The viability, T/C [2] was 11.1%, the viability, T/C [3] was 1.78% and the viability, T/C [4] was 0.68%. It also gave a viability, T/C [21] of 0.55%, a viability, T/C [22] of 0.47% and a viability, T/C [5] of 17.4%. For the same compound, the viability, T/C [6] was 11.5%, the viability, T/C [7] was 1.98% and the viability, T/C [8] was 0.67%. The viability, T/C [23] was 0.5%, the viability, T/C [24] was 0.4% and the viability, T/C [9] was 19%. The viability, T/C [10] was 10.3%, the viability, T/C [11] was 2.51% and the viability, T/C [12] was 0.72%. The viability, T/C [25] was 0.52%, the viability, T/C [26] was 0.58% and the viability, T/C [13] was 13.6%. For the same compound, the viability, T/C [14] was 10.3%, the viability, T/C [15] was 2.71% and the viability, T/C [16] was 0.8%. The viability, T/C [27] was 0.52%, the viability, T/C [28] was 0.63% and the viability, T/C [17] was 14.8%. For the same compound, the viability, T/C [18] was 8.29%, the viability, T/C [19] was 2.21% and the viability, T/C [20] was 0.82%. For the same compound, the viability, T/C [29] was 0.71% and the viability, T/C [30] was 0.78%.
With `COc1ccc([C@@H](O)c2cc(-c3ncnc4cc(N5CCOCC5)ccc34)c(F)cc2Cl)nn1` + NC1CC1c1ccc(-c2cccc(O)c2)cc1 the IC50 (second compound 0.1 µM) was 3510 nM, the IC50 (second compound 0.316 µM) was 3860 nM and the IC50 (second compound 1 µM) was 3330 nM. The IC50 (second compound 3.16 µM) was 1450 nM, the IC50 (second compound 10 µM) was 448 nM and the viability, T/C [3] was 126%. It also gave a viability, T/C [4] of 127%, a viability, T/C [21] of 94.4% and a viability, T/C [22] of 86.9%. For the same compound, the viability, T/C (second compound 0.1 µM, first compound 3.16 µM) was 54.5%, the viability, T/C (second compound 0.1 µM, first compound 10 µM) was 12.9% and the viability, T/C [7] was 111%. The viability, T/C [8] was 121%, the viability, T/C [23] was 103% and the viability, T/C [24] was 94.7%. For the same compound, the viability, T/C (second compound 0.316 µM, first compound 3.16 µM) was 57.6%, the viability, T/C (second compound 0.316 µM, first compound 10 µM) was 11.8% and the viability, T/C [11] was 98.3%. The viability, T/C [12] was 109%, the viability, T/C [25] was 87.9% and the viability, T/C [26] was 78.9%. The viability, T/C (second compound 1 µM, first compound 3.16 µM) was 52.2%, the viability, T/C (second compound 1 µM, first compound 10 µM) was 11.8% and the viability, T/C [15] was 108%. The viability, T/C [16] was 104%, the viability, T/C [27] was 71.6% and the viability, T/C [28] was 58.8%. It also gave a viability, T/C (second compound 3.16 µM, first compound 3.16 µM) of 35.8%, a viability, T/C (second compound 3.16 µM, first compound 10 µM) of 9.34% and a viability, T/C [19] of 78.4%. For the same compound, the viability, T/C [20] was 72.1%, the viability, T/C [29] was 50.6% and the viability, T/C [30] was 39.7%. It also gave a viability, T/C (second compound 10 µM, first compound 3.16 µM) of 25.5% and a viability, T/C (second compound 10 µM, first compound 10 µM) of 6.59%.
